Results from patent publication US20120128795A1, “COLORLESS, NON-FUMING, HAZARDLESS AND STABLE AQUA-REGIA, ITS PREPARATION METHOD AND USE IN TREATING MEDICAL DISORDERS” (priority 2010, published 2012).

How the values were obtained:
[1] = system: castor oil-induced diarrhea in albino rats; experiment: Castor oil-induced diarrhea (weight of faeces, rate of defecation); assay type: in vivo, Swiss albino rats; conditions: STD group, 10 mg/kg i.p.
Protocol: (§1) The anti-diarrheal activity of the hazardless and stable aqua-regia in terms of reduction of rate of defecation and consistency of faeces was tested on albino rats. In an embodiment, Swiss albino rats weighing 150-180 g of either sex were selected for the experiment. Animals were allowed to acclimatize for a period of 2 weeks in laboratory environment by housing them in a plurality of polypropylene cages. The polypropylene cages were maintained under standard laboratory conditions at an ambient temperature of 25° C. with 35%-60% humidity. Animals were fed with standard rat pellet diet.
Loperamide (standard reference anti-diarrheal drug), castor oil (laxative agent), and normal saline solution (0.9% NaCl) were used. […]
Animals of all the groups were placed separately in individual cages lined with filter paper. The filter paper was changed every 1 hour and the severity of diarrhea was assessed hourly for two hours. The total weight of faeces excreted were recorded within a period of two hours and compared with that of the control group. […]
(§2) Data were analyzed by one-way ANOVA followed by Dunnett's t-test using computerized Graph Pad InStat version 3.05.

[2] = system: intestinal transit of charcoal meal in albino rats; experiment: Gastrointestinal motility test (charcoal meal transit); assay type: in vivo, Swiss albino rats; conditions: charcoal meal one hour after dosing, sacrificed thirty minutes later; aqua-regia 0.03 ml, atropine sulphate 0.1 mg/kg; control group 84.46%
Protocol: as §1, with “use” for “anti-diarrheal activity”, “rehydrating body cells” for “terms of reduction of rate of defecation and consistency of faeces”
Atropine sulphate (standard reference anti-diarrheal drug), charcoal meal (10% activated charcoal in 5% gum acacia) and vehicle (2% v/v Tween 80 in distilled water) were used. […]
The gastrointestinal motility test was conducted to illustrate use of aqua-regia in rehydrating body cells, according to an embodiment herein. […] The distance travelled by the charcoal meal was calculated. The distance covered by the charcoal meal in the intestine was expressed as a percentage of the total distance travelled from the pylorus to the caecum of each animal.
as §2

| SMILES | diarrheal symptoms [1] | percentage transit (distance covered by charcoal meal as percentage of distance from pylorus to caecum) [2] [%] |
| --- | --- | --- |
| CN(C)C(=O)C(CCN1CCC(O)(c2ccc(Cl)cc2)CC1)(c1ccccc1)c1ccccc1 [loperamide, Loperamide] | does not possess any diarrheal symptoms | – |
| CN1[C@@H]2CC[C@H]1CC(OC(=O)C(CO)c1ccccc1)C2.CN1[C@@H]2CC[C@H]1CC(OC(=O)C(CO)c1ccccc1)C2.O=S(=O)(O)O (some centres unmarked) [standard drug, Atropine sulphate] | – | 55.57 |
